Tested on: A2780 cells
Test: Protein expression by western blot
Type: cell-based, human
Details: A2780, 0.1 μM to 10 μM, 48 h
Protocol: The influence of RX-3117 on protein expression during different treatment conditions was analyzed by western blot. Cells were lysed using 1× cell lysis buffer (Cell Signaling, Danvers, Mass., USA) containing 4% protease inhibitor cocktail (Roche Diagnostics, Mannheim, Germany) on ice for 30 minutes and centrifuged for 10 minutes at 4° C. at 14,000 rpm. Bio-Rad assay was performed to determine protein amount in the collected supernatant as described earlier (Lemos C, Kathmann I, Giovannetti E, Calhau C, Jansen G and Peters G J: Impact of cellular folate status and epidermal growth factor receptor expression on BCRP/ABCG2-mediated resistance to gefitinib and erlotinib. Br J Cancer 100: 1120-7, 2009). The following antibodies were used for protein expression: γH2A.X (cat#9718, Cell Signaling, 1:1000), β-actin (Sigma, 1:10,000), Cdc25C Ser216 (cat#4901, Cell Signaling, 1:1000), Cdk1 Tyr15 (cat#9111, Cell Signaling, 1:1000), […] (cat#2197S, Cell Signaling, 1:1000), Histone 3 (cat#4499, Cell Signaling). Antibodies were diluted in 1:1 solution with Rockland buffer (Rockland Inc, Philadelphia, Pa.) and phosphate buffered saline (PBS) supplemented with 0.05 Tween 20. Proteins were separated in 20% SDS-PAGE gel and transferred to polyvinylidene difluoride (PVDF) membrane. […] Proteins were detected by an Odyssey InfraRed Imager (Li-COR Bioscience, Lincoln, Nebr.).

Nc1ccn([C@@H]2C(F)=C(CO)[C@@H](O)[C@H]2O)c(=O)n1 [RX-3117, 4-amino-1-((1S,4R,5S)-2-fluoro-4,5-dihydroxy-3-hydroxymethyl-cyclopent-2-enyl)-1H-pyrimidin-2-one]
γH2A.X S139 induction: induction of γH2A.X S139 in a dose dependent manner

Source: patent US10278971B2, “Fluorocyclopentenylcytosine methods of use” (Rexahn Pharmaceuticals, Inc., priority 2015, dated 2019)
